From the supplement of paper PMC11208160 come the findings set out here.
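Also: IS621 recombinase and bridge RNA in Escherichia coli cells.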

A short description of the data set: recombinant barcode read abundance after kanamycin selection (control-corrected) (log10(CPM+1)); higher = more efficient recombination; sequences stand for … in AGTGCAGAGAAAATCGGCCAGTTTTCTCTGCCTGCAGTCCGCATGCCGT…AGATTTATGCAGCGGACTGCCTTTCTCCCAAAGTGATAAACCGGACAGTATCATGGACCGGTTTTCCCGGTAATCCGTATTTGCAAGGTTGGTTTCACT; site = the 11-nt target. An outline of the steps:
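Pooled oligos, each joining a target to an IS621 bridge RNA target-binding loop, were cloned and co-electroporated with a donor plasmid into E. coli. Selective plates carried chloramphenicol/ampicillin/kanamycin and 0.1 mM IPTG, while chloramphenicol/ampicillin LB agar served as control, with two replicates of each. Recombination efficiency rests on averaged, control-corrected counts per million of barcodes at recombinant junctions, shown as log10(CPM+1).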
On to “TAGGCGCCTTGGGTTCTAACCTGTTGCCT (site TAGGCGCCTAA)”, for which the “recombinant barcode read abundance (log10)” value turned out to be 0.173.
The value for “TAGGCGCCTTGGGTTCTAACCTGTTGCCT (site TAGGCGCCTAC)” was 0.0375; that for “TAGGCGCCTTGGGTTCTAACCTGTTGCCT (site TAGGCGCCTAG)” was 0.252.
As for “TAGGCGCCTTGGGTTCTAACCTGTTGCCT (site TAGGCGCCTAT)”, the “recombinant barcode read abundance (log10)” value was 0.235.
For “TAGGCTACTTGGGTTCTAACCTGTTGCAA (site TAGGCTACTAT)” the value was 0.144.
The value for “TAGGCTACTTGGGTTCTAACCTGTTGCAA (site TAGGCTACTCT)” was 0.0112.
As to “TAGGCTACTTGGGTTCTAACCTGTTGCAA (site TAGGCTACTGT)”, the “recombinant barcode read abundance (log10)” value came to 1.49.
With “TAGGCTACTTGGGTTCTAACCTGTTGCAA (site TAGGCTACTTT)”, the “recombinant barcode read abundance (log10)” value amounted to 1.33.
Consider “TAGGCTACTTGGGTTCTAACCTGTTGCAC (site TAGGCTACTAT)”, for which the “recombinant barcode read abundance (log10)” value came to 0.147.
For “TAGGCTACTTGGGTTCTAACCTGTTGCAC (site TAGGCTACTCT)” the value was 0.131; for “TAGGCTACTTGGGTTCTAACCTGTTGCAC (site TAGGCTACTGT)”, 1.19.
Consider “TAGGCTACTTGGGTTCTAACCTGTTGCAC (site TAGGCTACTTT)”, for which the “recombinant barcode read abundance (log10)” value was determined as 0.00761.
“TAGGCTACTTGGGTTCTAACCTGTTGCCA (site ACCCAATCTGT)”: the “recombinant barcode read abundance (log10)” value is 0.0662.
Take “TAGGCTACTTGGGTTCTAACCTGTTGCCA (site TAGGCTACTTG)”: the “recombinant barcode read abundance (log10)” value worked out at 0.129.
For the sequence “TAGGCTCCTTGGGTTCTAACCTGTTGCAG (site TAGGCTCCTAT)”, the “recombinant barcode read abundance (log10)” value worked out at 0.271.
Regarding “TAGGCTCCTTGGGTTCTAACCTGTTGCAG (site TAGGCTCCTCT)”, the “recombinant barcode read abundance (log10)” value was 0.429.
The value for “TAGGCTCCTTGGGTTCTAACCTGTTGCAG (site TAGGCTCCTGT)” was 0.0237.
On to “TAGGCTCCTTGGGTTCTAACCTGTTGCAG (site TAGGCTCCTTT)”, for which the “recombinant barcode read abundance (log10)” value was found to be 0.0834.
For “TAGGCTGCTTGGGTTCTAACCTGTTGCCT (site TAGACTGCTAG)” the value was 0.359; for “TAGGCTGCTTGGGTTCTAACCTGTTGCCT (site TAGCCTGCTAG)”, 0.
Take “TAGGCTGCTTGGGTTCTAACCTGTTGCCT (site TAGGCTGCTAG)”: the “recombinant barcode read abundance (log10)” value turned out to be 0.177.
The value for “TAGGCTGCTTGGGTTCTAACCTGTTGCCT (site TAGTCTGCTAG)” was 0.519; that for “TAGGTTCCTTGGGTTCTAACCTGTTGCAT (site TAGGTACCTAT)” was 0.795.
Regarding “TAGGTTCCTTGGGTTCTAACCTGTTGCAT (site TAGGTCCCTAT)”, the “recombinant barcode read abundance (log10)” value worked out at 0.335.
For “TAGGTTCCTTGGGTTCTAACCTGTTGCAT (site TAGGTGCCTAT)” the value was 0.6; for “TAGGTTCCTTGGGTTCTAACCTGTTGCAT (site TAGGTTCCTAT)”, 1.04; for “TAGTACCCTTGGGTTCTAACCTGTTGCAT (site TAGTACCCTAT)”, 0.43.
Turning to “TAGTACCCTTGGGTTCTAACCTGTTGCAT (site TAGTACCCTCT)”, the “recombinant barcode read abundance (log10)” value amounted to 0.0976.
The value for “TAGTACCCTTGGGTTCTAACCTGTTGCAT (site TAGTACCCTGT)” was 0.0568.
For “TAGTACCCTTGGGTTCTAACCTGTTGCAT (site TAGTACCCTTT)” the value was 0.227; for “TAGTAGTCTTGGGTTCTAACCTGTTGCCT (site TAGTAGTCTAA)”, 0.0538; for “TAGTAGTCTTGGGTTCTAACCTGTTGCCT (site TAGTAGTCTAC)”, 0.0503.
The value for “TAGTAGTCTTGGGTTCTAACCTGTTGCCT (site TAGTAGTCTAG)” was 1.64.
For the sequence “TAGTAGTCTTGGGTTCTAACCTGTTGCCT (site TAGTAGTCTAT)”, the “recombinant barcode read abundance (log10)” value stood at 0.108.
Regarding “TAGTATCCTTGGGTTCTAACCTGTTGCCA (site TACTACCCTTG)”, the “recombinant barcode read abundance (log10)” value came out at 0.142.
For “TAGTATCCTTGGGTTCTAACCTGTTGCCA (site TAGTATCCTTG)” the value was 0.146; for “TAGTATCCTTGGGTTCTAACCTGTTGCTA (site TAGTATCCTTA)”, 0.714.
Regarding “TAGTATCCTTGGGTTCTAACCTGTTGCTA (site TAGTATGCTTA)”, the “recombinant barcode read abundance (log10)” value stood at 0.0411.
For “TAGTCGTCTTGGGTTCTAACCTGTTGCTT (site TAGTCGTCTAA)” the value was 0.456; for “TAGTCGTCTTGGGTTCTAACCTGTTGCTT (site TAGTCGTCTAG)”, 0.309; for “TAGTCTGCTTGGGTTCTAACCTGTTGCCT (site TAGACTGCTAG)”, 0.0965.
Turning to “TAGTCTGCTTGGGTTCTAACCTGTTGCCT (site TAGCCTGCTAG)”, the “recombinant barcode read abundance (log10)” value came to 0.27.
For “TAGTCTGCTTGGGTTCTAACCTGTTGCCT (site TAGGCTGCTAG)” the value was 0.0685; for “TAGTCTGCTTGGGTTCTAACCTGTTGCCT (site TAGTCTGCTAG)”, 0.0515.
For “TAGTGCTCTTGGGTTCTAACCTGTTGCCT (site TAGTGCTCTAG)” the value was 1.12.
The value for “TAGTGCTCTTGGGTTCTAACCTGTTGCCT (site TAGTGCTCTCG)” was 0.434; that for “TAGTGCTCTTGGGTTCTAACCTGTTGCCT (site TAGTGCTCTGG)” was 0.157.
Take “TAGTGCTCTTGGGTTCTAACCTGTTGCCT (site TAGTGCTCTTG)”: the “recombinant barcode read abundance (log10)” value amounted to 0.178.
In the case of “TAGTGGCCTTGGGTTCTAACCTGTTGCCA (site TAGTGGACTTG)”, the “recombinant barcode read abundance (log10)” value is 0.095.
For the sequence “TAGTGGCCTTGGGTTCTAACCTGTTGCCA (site TAGTGGCCTTG)”, the “recombinant barcode read abundance (log10)” value worked out at 0.261.
The value for “TAGTGTACTTGGGTTCTAACCTGTTGCCT (site TAGTGTACTAG)” was 0.579.
“TAGTGTACTTGGGTTCTAACCTGTTGCCT (site TAGTGTCCTAG)”: the “recombinant barcode read abundance (log10)” value stood at 0.16.
The value for “TAGTGTACTTGGGTTCTAACCTGTTGCCT (site TAGTGTGCTAG)” was 0.221; that for “TAGTGTACTTGGGTTCTAACCTGTTGCCT (site TAGTGTTCTAG)” was 0.376; that for “TAGTGTCCTTGGGTTCTAACCTGTTGCAT (site TAGTGTCCTAT)” was 0.769.
For “TAGTGTCCTTGGGTTCTAACCTGTTGCAT (site TAGTGTTCTAT)” the value was 0.155; for “TAGTTAACTTGGGTTCTAACCTGTTGCCA (site TAGTTAACTTG)”, 0.569.
Turning to “TAGTTAACTTGGGTTCTAACCTGTTGCCA (site TAGTTCACTTG)”, the “recombinant barcode read abundance (log10)” value stood at 0.0909.
The value for “TAGTTAACTTGGGTTCTAACCTGTTGCCA (site TAGTTGACTTG)” was 0.0635.
“TAGTTAACTTGGGTTCTAACCTGTTGCCA (site TAGTTTACTTG)”: the “recombinant barcode read abundance (log10)” value came to 0.0484.
The value for “TAGTTAGCTTGGGTTCTAACCTGTTGCCG (site TAGTTAGCTAG)” was 0.0808; that for “TAGTTAGCTTGGGTTCTAACCTGTTGCCG (site TAGTTAGCTCG)” was 0.666; that for “TAGTTAGCTTGGGTTCTAACCTGTTGCCG (site TAGTTAGCTGG)” was 0.00835.
For “TAGTTAGCTTGGGTTCTAACCTGTTGCCG (site TAGTTAGCTTG)” the value was 0.0519.
With “TAGTTATCTTGGGTTCTAACCTGTTGCTA (site AGACGTACTAC)”, the “recombinant barcode read abundance (log10)” value worked out at 0.134.
The value for “TAGTTATCTTGGGTTCTAACCTGTTGCTA (site TAGTTATCTTA)” was 0.0606.
For “TAGTTGCCTTGGGTTCTAACCTGTTGCCT (site TAATTGCCTAG)” the value was 0.296; for “TAGTTGCCTTGGGTTCTAACCTGTTGCCT (site TACTTGCCTAG)”, 0.
For “TAGTTGCCTTGGGTTCTAACCTGTTGCCT (site TAGTTGCCTAG)” the value was 0.565; for “TAGTTGCCTTGGGTTCTAACCTGTTGCCT (site TATTTGCCTAG)”, 0.0554.
Turning to “TATACACCTTGGGTTCTAACCTGTTGCGT (site CTCCGGGCTCT)”, the “recombinant barcode read abundance (log10)” value came out at 0.0474.
“TATACACCTTGGGTTCTAACCTGTTGCGT (site TATACACCTAC)”: the “recombinant barcode read abundance (log10)” value was 1.48.
With “TATACCACTTGGGTTCTAACCTGTTGCCT (site TATACCACTAG)”, the “recombinant barcode read abundance (log10)” value worked out at 0.541.
Take “TATACCACTTGGGTTCTAACCTGTTGCCT (site TCGACCACTAG)”: the “recombinant barcode read abundance (log10)” value came out at 0.103.
“TATATGACTTGGGTTCTAACCTGTTGCGG (site ATGCACGCTAG)”: the “recombinant barcode read abundance (log10)” value was 0.0662.
As to “TATATGACTTGGGTTCTAACCTGTTGCGG (site TATATGACTCC)”, the “recombinant barcode read abundance (log10)” value stood at 1.41.
The value for “TATCCTCCTTGGGTTCTAACCTGTTGCCG (site GTGGAGTCTAC)” was 0.177.
